Measured values: the kinase profiling compilation of Christmann-Franck et al. (2016)

Legend:
Assay in all cases: radiometric filter-binding kinase assay, Kinase HotSpot
Conditions in all cases: compound 0.5 µM; ATP 10 µM
[1] = molecular target: CSNK1E (human) (UniProt P49674)
[2] = molecular target: CDK9 CCNK (human) (UniProt O75909+P50750)
[3] = molecular target: RPS6KA3 KD1 KD2 (human) (UniProt P51812)
[4] = molecular target: MAPK1 (human) (UniProt P28482)
[5] = molecular target: CDK2 CCNA2 (human) (UniProt P24941+P20248)
[6] = molecular target: TXK (human) (UniProt P42681)
[7] = molecular target: NEK7 (human) (UniProt Q8TDX7)
[8] = molecular target: CDK2 CCNE1 (human) (UniProt P24941+P24864)
[9] = molecular target: MAP4K2 (human) (UniProt Q12851)
Sequence of MAP4K2 (human) (Q12851 whole entry, looked up): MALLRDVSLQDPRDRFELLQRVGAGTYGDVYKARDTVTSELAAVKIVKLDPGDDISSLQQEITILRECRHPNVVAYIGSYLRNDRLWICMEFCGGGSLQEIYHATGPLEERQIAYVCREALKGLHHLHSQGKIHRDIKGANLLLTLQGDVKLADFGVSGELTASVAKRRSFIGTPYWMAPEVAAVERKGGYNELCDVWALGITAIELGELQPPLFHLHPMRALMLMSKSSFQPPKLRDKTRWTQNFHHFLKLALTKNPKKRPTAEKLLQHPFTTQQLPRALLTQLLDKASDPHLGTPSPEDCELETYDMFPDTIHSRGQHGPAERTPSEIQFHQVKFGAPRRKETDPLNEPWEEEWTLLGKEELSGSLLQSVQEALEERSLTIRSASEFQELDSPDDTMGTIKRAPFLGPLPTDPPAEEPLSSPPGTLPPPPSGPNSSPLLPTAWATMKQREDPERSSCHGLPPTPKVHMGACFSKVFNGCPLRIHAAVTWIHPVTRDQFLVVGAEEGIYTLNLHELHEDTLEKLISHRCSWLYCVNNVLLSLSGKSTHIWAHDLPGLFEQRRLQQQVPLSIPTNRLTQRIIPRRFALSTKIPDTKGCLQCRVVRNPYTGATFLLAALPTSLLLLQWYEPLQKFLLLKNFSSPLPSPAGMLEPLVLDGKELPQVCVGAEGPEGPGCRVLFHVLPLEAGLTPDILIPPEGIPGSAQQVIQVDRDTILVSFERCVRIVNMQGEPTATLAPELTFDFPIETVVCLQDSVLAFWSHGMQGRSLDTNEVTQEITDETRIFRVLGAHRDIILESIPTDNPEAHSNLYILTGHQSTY

[10] = molecular target: TAOK1 (human) (UniProt Q7L7X3)
[11] = molecular target: TSSK2 (human) (UniProt Q96PF2)
[12] = molecular target: CHEK1 (human) (UniProt O14757)
[13] = molecular target: CDK4 CCND3 (human) (UniProt P30281+P11802)
[14] = molecular target: MAP3K8 (human) (UniProt P41279)
[15] = molecular target: CAMK2D (human) (UniProt Q13557)
Sequence of CAMK2D (human) (Q13557 whole entry, looked up): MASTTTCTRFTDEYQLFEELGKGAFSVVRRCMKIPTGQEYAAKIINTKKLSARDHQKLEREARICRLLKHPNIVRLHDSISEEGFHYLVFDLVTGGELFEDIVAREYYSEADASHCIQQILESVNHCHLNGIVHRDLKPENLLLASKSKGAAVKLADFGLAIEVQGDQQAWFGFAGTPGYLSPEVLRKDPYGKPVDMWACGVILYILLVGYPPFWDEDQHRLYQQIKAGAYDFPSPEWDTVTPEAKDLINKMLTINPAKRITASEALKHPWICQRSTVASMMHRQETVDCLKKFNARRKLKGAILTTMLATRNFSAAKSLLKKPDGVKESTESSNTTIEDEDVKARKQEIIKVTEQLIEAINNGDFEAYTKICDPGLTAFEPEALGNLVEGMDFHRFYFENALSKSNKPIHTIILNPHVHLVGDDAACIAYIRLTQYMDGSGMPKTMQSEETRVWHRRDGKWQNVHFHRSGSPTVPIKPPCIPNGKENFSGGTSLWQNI

[16] = molecular target: RPS6KA2 KD1 KD2 (human) (UniProt Q15349)
[17] = molecular target: PIM2 (human) (UniProt Q9P1W9)
[18] = molecular target: HIPK3 (human) (UniProt Q9H422)
[19] = molecular target: FER (human) (UniProt P16591)
[20] = molecular target: FGFR4 (human) (UniProt P22455)
[21] = molecular target: CDK5 CDK5R1 p25 (human) (UniProt Q00535+Q15078)
[22] = molecular target: RIPK2 (human) (UniProt O43353)
Sequence of RIPK2 (human) (O43353 whole entry, looked up): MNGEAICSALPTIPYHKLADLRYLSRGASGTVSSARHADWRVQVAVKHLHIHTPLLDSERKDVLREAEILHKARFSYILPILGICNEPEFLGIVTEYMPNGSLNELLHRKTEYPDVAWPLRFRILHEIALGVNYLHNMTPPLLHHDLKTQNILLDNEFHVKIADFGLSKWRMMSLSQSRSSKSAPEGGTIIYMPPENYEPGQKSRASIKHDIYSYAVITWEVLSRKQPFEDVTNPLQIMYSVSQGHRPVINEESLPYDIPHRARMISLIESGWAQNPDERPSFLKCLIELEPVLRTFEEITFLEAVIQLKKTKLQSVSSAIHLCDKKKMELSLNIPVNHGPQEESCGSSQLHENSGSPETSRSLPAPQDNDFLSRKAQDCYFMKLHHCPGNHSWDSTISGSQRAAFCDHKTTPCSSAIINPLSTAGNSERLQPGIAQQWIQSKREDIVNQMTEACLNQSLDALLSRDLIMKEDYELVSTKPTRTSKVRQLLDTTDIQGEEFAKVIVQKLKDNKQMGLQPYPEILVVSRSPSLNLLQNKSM

[23] = molecular target: EPHA3 (human) (UniProt P29320)
[24] = molecular target: ULK1 (human) (UniProt O75385)
Sequence of ULK1 (human) (O75385 whole entry, looked up): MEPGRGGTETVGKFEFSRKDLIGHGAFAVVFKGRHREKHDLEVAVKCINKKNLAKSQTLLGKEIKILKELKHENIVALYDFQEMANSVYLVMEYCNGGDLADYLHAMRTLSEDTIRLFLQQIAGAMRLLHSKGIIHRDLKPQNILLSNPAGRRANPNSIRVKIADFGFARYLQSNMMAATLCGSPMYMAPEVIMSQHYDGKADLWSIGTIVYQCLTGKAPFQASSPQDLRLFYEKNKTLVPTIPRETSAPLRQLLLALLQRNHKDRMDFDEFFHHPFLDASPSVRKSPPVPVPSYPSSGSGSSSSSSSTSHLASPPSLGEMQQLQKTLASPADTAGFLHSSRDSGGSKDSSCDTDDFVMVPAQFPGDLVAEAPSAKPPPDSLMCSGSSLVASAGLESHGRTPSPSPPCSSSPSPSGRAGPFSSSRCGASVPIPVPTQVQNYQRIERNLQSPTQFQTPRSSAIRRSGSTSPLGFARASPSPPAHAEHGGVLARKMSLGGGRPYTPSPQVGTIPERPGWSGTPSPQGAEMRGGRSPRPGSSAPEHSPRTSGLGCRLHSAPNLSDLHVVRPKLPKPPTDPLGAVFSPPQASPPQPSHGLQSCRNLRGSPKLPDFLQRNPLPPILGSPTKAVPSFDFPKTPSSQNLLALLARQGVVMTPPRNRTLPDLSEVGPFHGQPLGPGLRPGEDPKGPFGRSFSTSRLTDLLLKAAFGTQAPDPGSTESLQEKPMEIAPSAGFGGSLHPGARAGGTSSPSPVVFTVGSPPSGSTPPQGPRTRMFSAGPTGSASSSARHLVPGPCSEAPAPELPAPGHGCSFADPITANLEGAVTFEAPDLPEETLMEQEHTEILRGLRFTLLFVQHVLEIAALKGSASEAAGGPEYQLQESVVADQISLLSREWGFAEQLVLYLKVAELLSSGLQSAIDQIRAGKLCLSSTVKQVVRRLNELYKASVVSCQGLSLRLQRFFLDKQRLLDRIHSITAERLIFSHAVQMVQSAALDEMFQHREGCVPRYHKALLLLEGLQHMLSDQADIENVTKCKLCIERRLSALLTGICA

[25] = molecular target: MATK (human) (UniProt P42679)
[26] = molecular target: NEK3 (human) (UniProt P51956)
[27] = molecular target: PRKD3 (human) (UniProt O94806)
[28] = molecular target: CHUK (human) (UniProt O15111)
Sequence of CHUK (human) (O15111 whole entry, looked up): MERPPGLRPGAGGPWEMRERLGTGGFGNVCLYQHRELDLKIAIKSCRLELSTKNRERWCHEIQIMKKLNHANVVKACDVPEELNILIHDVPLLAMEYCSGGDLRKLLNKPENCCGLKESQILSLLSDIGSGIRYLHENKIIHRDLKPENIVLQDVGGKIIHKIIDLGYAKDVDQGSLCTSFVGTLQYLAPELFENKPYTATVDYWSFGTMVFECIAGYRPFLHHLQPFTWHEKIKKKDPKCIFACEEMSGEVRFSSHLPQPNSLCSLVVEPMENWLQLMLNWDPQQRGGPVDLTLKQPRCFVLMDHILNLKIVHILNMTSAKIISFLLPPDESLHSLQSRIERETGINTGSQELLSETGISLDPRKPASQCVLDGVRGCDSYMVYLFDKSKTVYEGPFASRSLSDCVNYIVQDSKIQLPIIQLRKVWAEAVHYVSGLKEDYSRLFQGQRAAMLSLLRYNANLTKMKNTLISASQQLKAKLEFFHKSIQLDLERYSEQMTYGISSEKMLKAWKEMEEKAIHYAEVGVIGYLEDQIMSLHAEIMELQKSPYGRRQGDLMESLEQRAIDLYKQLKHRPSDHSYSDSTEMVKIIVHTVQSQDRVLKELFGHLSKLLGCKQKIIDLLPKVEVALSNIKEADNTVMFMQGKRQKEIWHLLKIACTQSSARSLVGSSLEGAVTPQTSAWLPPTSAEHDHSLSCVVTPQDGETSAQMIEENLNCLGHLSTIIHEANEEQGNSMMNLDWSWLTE

[29] = molecular target: CHEK2 (human) (UniProt O96017)
[30] = molecular target: PRKCZ (human) (UniProt Q05513)
[31] = molecular target: TEC (human) (UniProt P42680)
[32] = molecular target: BLK (human) (UniProt P51451)
[33] = molecular target: PBK (human) (UniProt Q96KB5)
[34] = molecular target: MAPK8 (human) (UniProt P45983)
[35] = molecular target: MARK4 (human) (UniProt Q96L34)
[36] = molecular target: TYRO3 (human) (UniProt Q06418)
[37] = molecular target: TTK (human) (UniProt P33981)
[38] = molecular target: PNCK (human) (UniProt Q6P2M8)
[39] = molecular target: FRK (human) (UniProt P42685)
[40] = molecular target: MELK (human) (UniProt Q14680)
[41] = molecular target: KIT (human) (UniProt P10721)
Sequence of KIT (human) (P10721 whole entry, looked up): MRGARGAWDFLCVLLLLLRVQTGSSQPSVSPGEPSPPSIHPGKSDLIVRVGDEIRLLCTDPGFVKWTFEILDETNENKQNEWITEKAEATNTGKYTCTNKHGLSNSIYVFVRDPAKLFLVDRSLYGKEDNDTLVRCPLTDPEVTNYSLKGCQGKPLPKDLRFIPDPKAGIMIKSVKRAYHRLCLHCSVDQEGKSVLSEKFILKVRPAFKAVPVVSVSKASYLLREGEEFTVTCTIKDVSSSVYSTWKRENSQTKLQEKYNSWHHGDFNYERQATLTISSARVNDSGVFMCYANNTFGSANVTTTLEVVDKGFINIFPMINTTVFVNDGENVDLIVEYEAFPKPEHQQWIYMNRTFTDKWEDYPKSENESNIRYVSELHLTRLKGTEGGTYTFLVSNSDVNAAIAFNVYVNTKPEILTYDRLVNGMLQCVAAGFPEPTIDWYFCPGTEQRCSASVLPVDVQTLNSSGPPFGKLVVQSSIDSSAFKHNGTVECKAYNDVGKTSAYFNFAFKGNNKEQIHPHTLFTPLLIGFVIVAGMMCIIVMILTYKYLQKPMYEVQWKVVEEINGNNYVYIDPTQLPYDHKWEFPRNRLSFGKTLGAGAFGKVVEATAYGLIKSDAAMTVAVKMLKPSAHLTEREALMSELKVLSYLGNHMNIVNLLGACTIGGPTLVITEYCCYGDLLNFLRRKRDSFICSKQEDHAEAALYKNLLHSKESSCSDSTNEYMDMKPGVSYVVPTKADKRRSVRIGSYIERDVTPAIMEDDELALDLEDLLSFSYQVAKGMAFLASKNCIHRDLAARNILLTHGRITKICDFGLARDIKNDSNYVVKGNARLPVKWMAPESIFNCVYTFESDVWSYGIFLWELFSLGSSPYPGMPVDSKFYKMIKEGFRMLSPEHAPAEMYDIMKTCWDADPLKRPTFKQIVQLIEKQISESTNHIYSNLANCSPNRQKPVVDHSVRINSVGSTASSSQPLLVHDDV

Sequence of MAPK1 (human) (P28482 whole entry, looked up): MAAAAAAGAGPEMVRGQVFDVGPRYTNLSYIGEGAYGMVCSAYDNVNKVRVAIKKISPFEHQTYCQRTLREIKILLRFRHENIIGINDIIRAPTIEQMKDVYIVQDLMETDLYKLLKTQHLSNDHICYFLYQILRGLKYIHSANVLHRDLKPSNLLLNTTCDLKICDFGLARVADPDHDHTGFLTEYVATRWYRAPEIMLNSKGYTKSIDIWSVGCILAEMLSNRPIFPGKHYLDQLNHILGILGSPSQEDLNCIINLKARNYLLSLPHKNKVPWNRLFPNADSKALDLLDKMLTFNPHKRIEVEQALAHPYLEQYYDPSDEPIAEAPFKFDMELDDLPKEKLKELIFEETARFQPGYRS

c1ccc(-c2n[nH]c3c2oc2ccccc23)cc1
residual activity [1]: 91.8%
residual activity [2]: 86.2%
residual activity [3]: 109%
residual activity [4]: 118%
residual activity [5]: 88.1%
residual activity [6]: 81.5%
residual activity [7]: 105%
residual activity [8]: 95.6%
residual activity [9]: 61.8%
residual activity [10]: 121%
residual activity [11]: 97.6%
residual activity [12]: 117%
residual activity [13]: 101%
residual activity [14]: 105%
residual activity [15]: 94.5%
residual activity [16]: 77.5%
residual activity [17]: 104%
residual activity [18]: 80.7%
residual activity [19]: 103%
residual activity [20]: 85.5%
residual activity [21]: 99%
residual activity [22]: 78.8%
residual activity [23]: 104%
residual activity [24]: 124%
residual activity [25]: 94%
residual activity [26]: 98.9%
residual activity [27]: 99.6%
residual activity [28]: 92.3%
residual activity [29]: 101%
residual activity [30]: 87.1%
residual activity [31]: 95.6%
residual activity [32]: 88.9%
residual activity [33]: 94.8%
residual activity [34]: 79.6%
residual activity [35]: 98.2%
residual activity [36]: 87.6%
residual activity [37]: 95.7%
residual activity [38]: 98.6%
residual activity [39]: 89.9%
residual activity [40]: 77%
residual activity [41]: 38%

CNC(=O)c1cc(Oc2ccc(NC(=O)Nc3ccc(Cl)c(C(F)(F)F)c3)cc2)ccn1
residual activity [1]: 95.9%
residual activity [2]: 101%
residual activity [3]: 100%
residual activity [4]: 101%
residual activity [5]: 99.7%
residual activity [6]: 106%
residual activity [7]: 98.2%
residual activity [8]: 98.2%
residual activity [9]: 108%
residual activity [10]: 82%
residual activity [11]: 102%
residual activity [12]: 173%
residual activity [13]: 114%
residual activity [14]: 93.6%
residual activity [15]: 102%
residual activity [16]: 93.3%
residual activity [17]: 103%
residual activity [18]: 85.7%
residual activity [19]: 101%
residual activity [20]: 104%
residual activity [21]: 97.2%
residual activity [22]: 86.2%
residual activity [23]: 95.5%
residual activity [24]: 94.3%
residual activity [25]: 114%
residual activity [26]: 97.2%
residual activity [27]: 94%
residual activity [28]: 99.8%
residual activity [29]: 102%
residual activity [30]: 94.5%
residual activity [31]: 101%
residual activity [32]: 99.1%
residual activity [33]: 97.5%
residual activity [34]: 92.8%
residual activity [35]: 98.1%
residual activity [36]: 91.7%
residual activity [37]: 104%
residual activity [38]: 94.7%
residual activity [40]: 93.6%
residual activity [41]: 53.3%
